The target of one assay is T1, Human PKMYT1 (Homo sapiens, UniProt Q99640).
T1 construct: Human PKMYT1 75-362 was cloned as a TEV cleavable 6xHis fusion; 6xHis (TEV cleavable) (cleaved yes); made in house; host or cells: bacterial cells
T1 sequence (Q99640 75-362): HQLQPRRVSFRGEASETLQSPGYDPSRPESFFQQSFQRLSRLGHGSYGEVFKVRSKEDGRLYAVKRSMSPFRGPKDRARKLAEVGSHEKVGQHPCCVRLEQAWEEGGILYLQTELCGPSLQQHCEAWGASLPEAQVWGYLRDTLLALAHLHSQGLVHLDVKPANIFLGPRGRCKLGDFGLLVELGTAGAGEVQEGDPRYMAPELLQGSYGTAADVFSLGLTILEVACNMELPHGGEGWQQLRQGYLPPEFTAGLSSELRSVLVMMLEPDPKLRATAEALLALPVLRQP
In words: PKMYT1 biochemical ADP-Glo enzymatic assay. In outline:
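PKMYT1 75-362 (His-cleaved, bacterial) 15 nM; ATP 500 µM; HEPES pH 7.5, MgCl2, EGTA, Brij-35, 1% DMSO; 60 min, 26 °C; ADP-Glo Max luminescence; 10-pt 3-fold titration → IC50; replicates within 3-fold, r2 >0.9.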

In another assay the target is T2, WEE1 (Homo sapiens, UniProt P30291).
T2 construct: purchased Thermo Fisher PR7373A
The assay can be described thus: Selectivity versus WEE1 assay (ADP-Glo enzymatic assay). The format is biochemical. The following applies: for IC50: ADP-Glo; for PKMYT1 vs. WEE1 selectivity: fold difference in selectivity for PKMYT1 over WEE1. The gist of the method: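 15 nM WEE1, 30 µM ATP, 50 mM HEPES pH 7.5, 10 mM MgCl2, 1 mM EGTA, 0.01% Brij-35, 1% DMSO; 60 min, 26° C; ADP-Glo luminescence; IC50 from curve fit, replicates within 3-fold, r2 >0.9.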
(In general: ADP-Glo turns the ADP formed in a reaction into a luminescent signal.)

Setting [1] is: ADP-Glo, 15 nM PKMYT1 kinase domain, 500 µM ATP, 60 minutes at 26° C., banded.
Where [2] appears, read: 15 nM WEE1, 60 minutes at 26° C., banded.
Setting [3] is: banded, ">N" = at least in this band but could be higher.

A word on the IC50: it is the concentration needed to halve the response being measured. Low values mean higher potency, high ones lower potency.

T2 sequence (P30291 whole entry): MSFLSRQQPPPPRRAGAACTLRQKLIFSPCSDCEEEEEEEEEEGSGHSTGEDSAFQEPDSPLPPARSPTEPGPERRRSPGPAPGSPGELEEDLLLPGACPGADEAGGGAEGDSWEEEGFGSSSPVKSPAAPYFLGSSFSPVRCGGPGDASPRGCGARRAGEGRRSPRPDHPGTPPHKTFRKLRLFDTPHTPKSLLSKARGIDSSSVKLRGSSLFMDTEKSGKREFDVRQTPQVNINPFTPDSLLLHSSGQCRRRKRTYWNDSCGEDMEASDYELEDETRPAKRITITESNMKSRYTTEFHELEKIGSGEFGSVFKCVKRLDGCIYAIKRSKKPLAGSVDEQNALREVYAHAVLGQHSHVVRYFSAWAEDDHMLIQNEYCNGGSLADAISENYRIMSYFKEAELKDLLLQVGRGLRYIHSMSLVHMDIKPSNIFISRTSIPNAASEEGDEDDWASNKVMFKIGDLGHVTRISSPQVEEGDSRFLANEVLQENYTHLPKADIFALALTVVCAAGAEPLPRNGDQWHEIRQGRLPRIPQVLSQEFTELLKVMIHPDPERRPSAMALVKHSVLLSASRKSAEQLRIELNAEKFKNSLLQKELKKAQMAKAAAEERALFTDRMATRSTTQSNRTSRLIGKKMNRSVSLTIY

As for `Cc1ccc(O)c(C)c1NC(=O)c1cnc(Nc2ccc3cc(Br)cnc3n2)s1` [BAA-298, 2-((6-bromo-1,8-naphthyridin-2-yl)amino)-N-(3-hydroxy-2,6-dimethylphenyl)thiazole-5-carboxamide], the half-inhibitory concentration (IC50) against Human PKMYT1 (setting [1]) is 50 to 1000 nM; against WEE1 (setting [2]) it was greater than 11 µM. Further, on WEE1 (setting [3]), the “PKMYT1 vs. WEE1 selectivity” value is reported as “Y (1000-5000 fold)”.
The matching figures for `Cc1ccc(O)c(C)c1NC(=O)c1cnc(Nc2ccn(CC(=O)N3CCN(C(=O)CC(C)C)CC3)n2)s1` [BAA-198, N-(3-hydroxy-2,6-dimethyl-phenyl)-2-[[1-[2-[4-(3-methylbutanoyl)piperazin-1-yl]-2-oxo-ethyl]pyrazol-3-yl]amino]thiazole-5-carboxamide]: less than 50 nM, greater than 11 µM and “Y (1000-5000 fold)”.
Consider `Cc1ccc(O)c(C)c1NC(=O)c1cnc(Nc2sccc2C(N)=O)s1` [BAA-021, 2-[(3-carbamoyl-2-thienyl)amino]-N-(3-hydroxy-2,6-dimethyl-phenyl)thiazole-5-carboxamide], for which the results for the half-inhibitory concentration (IC50) against Human PKMYT1 (setting [1]) and on WEE1 (setting [2]) were 50 to 1000 nM and greater than 11 µM, respectively. The “PKMYT1 vs. WEE1 selectivity” value at WEE1 (setting [3]) was “>X (100-<1000 fold)”.
Take `Cc1ccc(O)c(C)c1NC(=O)c1cnc(N)s1` [BAA-001, 2-Amino-N-(3-hydroxy-2,6-dimethyl-phenyl)thiazole-5-carboxamide]: the IC50 on Human PKMYT1 (setting [1]) was 50 to 1000 nM; against Human PKMYT1 (PKMYT1 biochemical ADP-Glo enzymatic assay, Comparison Data 1), 327 nM; at WEE1 (setting [2]), greater than 11 µM. Further, the “improvement in PKMYT1 IC50 as compared to REF-001” value at Human PKMYT1 (vs REF-001) is recorded as 163 fold. Further, the “improvement in PKMYT1 IC50 as compared to REF-002” value on Human PKMYT1 (vs REF-002) is listed as 82 fold. Also, the “PKMYT1 vs. WEE1 selectivity” value at WEE1 (setting [3]) was “X (100-<1000 fold)”.
Turning to `Cc1ccc(O)c(C)c1NC(=O)c1cnc(Nc2cc(C(N)=O)nn2C)s1` [BAA-131, 2-[(5-Carbamoyl-2-methyl-pyrazol-3-yl)amino]-N-(3-hydroxy-2,6-dimethyl-phenyl)thiazole-5-carboxamide], the IC50 was less than 50 nM against Human PKMYT1 (setting [1]) and greater than 11 µM against WEE1 (setting [2]). For the same molecule, the “PKMYT1 vs. WEE1 selectivity” value at WEE1 (setting [3]) is recorded as “Y (1000-5000 fold)”.
For `Cc1csc(Nc2ncc(C(=O)Nc3c(C)ccc(O)c3C)s2)n1` [BAA-264, N-(3-hydroxy-2,6-dimethylphenyl)-2-((4-methylthiazol-2-yl)amino)thiazole-5-carboxamide], in that order: less than 50 nM, greater than 11 µM and “X (100-<1000 fold)”.
Regarding `Cc1ccc(O)c(C)c1NC(=O)c1cnc(Nc2ccn(CC(=O)N3CCN(C4CCCCC4)CC3)n2)s1` [BAA-187], the half-maximal inhibitory concentration (IC50) on Human PKMYT1 (setting [1]) was less than 50 nM; at WEE1 (setting [2]), greater than 11 µM. Further, the “PKMYT1 vs. WEE1 selectivity” value at WEE1 (setting [3]) is “Y (1000-5000 fold)”.
For the molecule `Cc1ccc(O)c(C)c1NC(=O)c1cnc(Nc2n[nH]cc2Br)s1` [BAA-579, 2-((4-Bromo-1H-pyrazol-3-yl)amino)-N-(3-hydroxy-2,6-dimethylphenyl)thiazole-5-carboxamide], the IC50 was less than 50 nM against Human PKMYT1 (PKMYT1 kinase domain 15 nM, ADP-Glo, banded values) and 1 to 11 µM at WEE1 (WEE1 15 nM, banded values). The “PKMYT1 vs. WEE1 selectivity” value at WEE1 (banded) is recorded as “X (100-<1000 fold)”.
With `Cc1ccc(O)c(C)c1NC(=O)c1cnc(Nc2ccn([C@@H]3CCOC3)n2)s1` [BAA-037], the concentration for half-maximal inhibition (IC50) on Human PKMYT1 (setting [1]) is 50 to 1000 nM; against WEE1 (setting [2]), greater than 11 µM. The “PKMYT1 vs. WEE1 selectivity” value at WEE1 (setting [3]) is “>X (100-<1000 fold)”.
For `Cc1ccc(O)c(C)c1NC(=O)c1cnc(Nc2ccn([C@@H]3CCN(C(=O)C(C)C)C3)n2)s1` [BAA-086], in that order: 50 to 1000 nM, greater than 11 µM and “>Y (1000-5000 fold)”.
For `CCNC(=O)N1CC[C@@H](n2ccc(Nc3ncc(C(=O)Nc4c(C)ccc(O)c4C)s3)n2)C1` [BAA-109, 2-[[1-[(3R)-1-(Ethylcarbamoyl)pyrrolidin-3-yl]pyrazol-3-yl]amino]-N-(3-hydroxy-2,6-dimethyl-phenyl)thiazole-5-carboxamide], in that order: 50 to 1000 nM, greater than 11 µM and “>X (100-<1000 fold)”.
